# Data: PMC6934184, “Selective DNA-PKcs inhibition extends the therapeutic index of localized radiotherapy and chemotherapy” (The Journal of Clinical Investigation, 2019)
# Target: T1, LTK (TYK1) (Homo sapiens, UniProt P29376)
# T1 construct: purchased Thermo Fisher Scientific (Life Technologies) SelectScreen
# Test: SelectScreen Z'LYTE
# Assay type: biochemical
# In short: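 SelectScreen broad panel; activity (Z'LYTE, Adapta) plus binding formats. ATP: Km app for CSF1R Z'LYTE; 10 for CAMK1 Adapta. Readout = % per kinase.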
# T1 sequence (P29376 17-864): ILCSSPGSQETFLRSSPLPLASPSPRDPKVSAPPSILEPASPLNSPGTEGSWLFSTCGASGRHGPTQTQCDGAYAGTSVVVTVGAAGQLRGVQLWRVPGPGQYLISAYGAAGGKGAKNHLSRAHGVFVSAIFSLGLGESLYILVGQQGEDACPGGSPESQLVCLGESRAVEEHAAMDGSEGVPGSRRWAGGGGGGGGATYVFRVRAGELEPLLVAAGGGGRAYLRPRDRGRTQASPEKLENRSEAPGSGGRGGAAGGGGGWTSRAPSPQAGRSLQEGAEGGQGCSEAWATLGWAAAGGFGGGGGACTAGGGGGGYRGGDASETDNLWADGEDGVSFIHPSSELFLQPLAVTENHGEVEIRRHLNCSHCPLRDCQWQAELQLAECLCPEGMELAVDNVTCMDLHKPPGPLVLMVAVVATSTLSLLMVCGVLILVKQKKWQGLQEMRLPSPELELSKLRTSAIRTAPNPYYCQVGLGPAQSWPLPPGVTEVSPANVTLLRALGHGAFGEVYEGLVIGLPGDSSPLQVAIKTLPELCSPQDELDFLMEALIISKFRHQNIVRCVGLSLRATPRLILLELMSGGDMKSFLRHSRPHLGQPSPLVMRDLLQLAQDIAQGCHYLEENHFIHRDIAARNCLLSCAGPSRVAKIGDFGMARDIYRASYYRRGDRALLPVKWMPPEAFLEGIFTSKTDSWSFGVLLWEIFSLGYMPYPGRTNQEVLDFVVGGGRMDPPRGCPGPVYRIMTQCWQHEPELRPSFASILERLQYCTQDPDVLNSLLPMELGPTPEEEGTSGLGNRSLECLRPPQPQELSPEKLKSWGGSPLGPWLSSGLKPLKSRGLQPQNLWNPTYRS
smiles,measurement,value
CN(C(=O)CN1CCOCC1)c1ccc2sc3c(-c4cccc5c(=O)cc(N6CC7CCC(C6)O7)oc45)cccc3c2c1 [NU5455],inhibition at 1 µM,-13.1%
